In article PMC8064491, “Design and Synthesis of Novel Symmetric Fluorene-2,7-Diamine Derivatives as Potent Hepatitis C Virus Inhibitors” (Pharmaceuticals, 2021):
Read-outs that look alike come from different tables or passages of the source.

How the values were obtained:
[1] = system: HCV subgenomic reporter replicon of genotype 1b (strain Con1); assay: Anti-HCV 1b activity, luciferase reporter replicon assay in Huh5-2 cells; format: cell-based, Hepatitis C virus; settings: for EC50: Hepatitis C virus, read-out: HCV Replicon 1b EC50; for HCV Replicon 1b SI50: SI50 = CC50/EC50
Procedure: (§1) The HCV RNA replication inhibitory effect of the novel compounds and their impact on cell viability was tested in the stable cell line Huh5-2 carrying an HCV subgenomic reporter replicon of genotype 1b (strain Con1). The viral replication level was measured in terms of the activity of the co-expressed firefly luciferase (F-Luc). Several concentrations of the tested compounds were prepared in a cell culture medium and were used to treat the cells for 72 h. The solvent DMSO was added as a control with a final concentration of 0.2% so as not to impact viral replication (data not shown). First, different compound concentrations of up to 100 μM were evaluated for their effect on cell viability; results are reported as the median cytotoxic concentration (CC50). Next, all compounds were screened for their anti-HCV activity at a concentration of 1 µM, and compounds showing ≥50% activity were further tested in several concentrations to calculate the median effective concentration (EC50) values (Table 1 and Table 2). The anti-HCV activity of the analogs 1–32 was estimated by quantifying luciferase activity resulting from viral replication. Cytotoxicity was determined by measuring the intracellular levels of ATP. The selectivity index (SI50) was calculated as the ratio of CC50 to EC50 and was calculated as an indication of the compounds’ safety. We used daclatasvir as a positive control.
The stable replicon cell line Huh5-2 (genotype 1b; Con1) (kindly provided by R. Bartenschlager, Heidelberg University, Germany) has been described previously. The stable cell lines Huh7.5-3a and Huh7.5-4a have been constructed with the subgenomic reporter replicons of HCV 3a (S52) S52-SG(Feo)(AII) and HCV 4a (ED43) ED43-SG(Feo)(VYG) (kindly provided by C.M. Rice, The Rockefeller University, NY). Cells were cultured in high glucose (25 mM) Dulbecco’s modified minimal essential medium (Invitrogen), supplemented with 2 mM L-glutamine, 0.1 mM non-essential amino acids, 100 U/mL penicillin, 100 µg/mL streptomycin, and 10% (v/v) fetal calf serum (referred to as complete DMEM). Complete DMEM was supplemented with G418 at 500 μg/mL for Huh5-2, 750 μg/mL for Huh7.5-3a, and 350 μg/mL for Huh7.5-4a.
(§2) Cells were treated with serial dilutions of the test compounds or the solvent DMSO for 72 h. Antiviral activity and cytotoxicity were determined by measuring virus-derived luciferase activity or intracellular ATP levels, respectively. The median effective concentration (EC50) of the compounds, reducing luciferase signal by 50%, and their median cytotoxic concentration (CC50), causing 50% cell death, were determined by nonlinear regression analysis using the Prism 6.0 software (GraphPad Software Inc.). Daclatasvir was kindly provided by Dr. Marc Windisch (Institut Pasteur Korea).
Firefly luciferase activity was measured using Luciferase Assay System (Promega), according to the manufacturer’s instructions. Measurements were performed with a GloMax 20/20 single tube luminometer (Promega) for 10 s. Values were normalized to total protein amounts as quantified by Bradford assay (Pierce).

[2] = Cytotoxicity by intracellular ATP levels; format: cell-based; settings: human, Huh5-2 cells, read-out: HCV Replicon 1b CC50
Procedure: as §1, §2
ATP was measured using the ViaLight HS BioAssay kit (Lonza) according to the manufacturer’s protocol in a GloMax 20/20 single-tube luminometer (Promega) for 1 s. Values were normalized to total protein amounts.

Row | Compound | EC50 ([1]; Huh-5-2, 72 h) | HCV Replicon 1b SI50 [1] | CC50 at 72 h [2] | fold more potent than six-membered congeners ([1]; 1, 9, 17, 21 vs 29, 30, 31, 32 respectively, HCV 1b EC50 ratio) | times less potent than compound 26 ([1]; HCV 1b EC50 ratio) | EC50 ([1]; Huh-5-2, Huh5-2 cells, 72 h, luciferase activity) | fold more active than S counterparts ([1]; 25 vs 21, 26 vs 22, HCV 1b EC50 ratio)
1 | CC(C)[C@@H](NC(=O)OCc1ccccc1)C(=O)N1CCC[C@H]1C(=O)Nc1ccc2c(c1)Cc1cc(NC(=O)[C@@H]3CCCN3C(=O)[C@H](NC(=O)OCc3ccccc3)C(C)C)ccc1-2 [Compound 8, Dibenzyl((2R,2’R)-((2S,2’S)-(((9H-fluorene-2,7-diyl)bis(azanediyl))bis(carbonyl))bis(pyrrolidine-2,1-diyl))bis(3-methyl-1-oxobutane-1,2-diyl))dicarbamate] | 45.4 nM | >2202 | > 100000 nM | – | – | – | –
2 | COC(=O)N[C@H](CC(C)C)C(=O)N1CCC[C@H]1C(=O)Nc1ccc2c(c1)Cc1cc(NC(=O)[C@@H]3CCCN3C(=O)[C@@H](CC(C)C)NC(=O)OC)ccc1-2 [Compound 13, Dimethyl((2R,2’R)-((2S,2’S)-(((9H-fluorene-2,7-diyl)bis(azanediyl))bis(carbonyl))bis(pyrrolidine-2,1-diyl))bis(4-methyl-1-oxopentane-1,2-diyl))dicarbamate] | 0.081 nM | >1,238,850 | > 100000 nM | – | – | – | –
3 | COC(=O)N[C@H](C(=O)N1CCC[C@H]1C(=O)Nc1ccc2c(c1)Cc1cc(NC(=O)[C@@H]3CCCN3C(=O)[C@@H](NC(=O)OC)C(C)C)ccc1-2)C(C)C [Compound 1, Dimethyl((2S,2’S)-((2S,2’S)-(((9H-fluorene-2,7-diyl)bis(azanediyl))bis(carbonyl))bis(pyrrolidine-2,1-diyl))bis(3-methyl-1-oxobutane-1,2-diyl))dicarbamate] | – | – | – | five | – | – | –
4 | CCCCOC(=O)N[C@H](CC(C)C)C(=O)N1CCC[C@H]1C(=O)Nc1ccc2c(c1)Cc1cc(NC(=O)[C@@H]3CCCN3C(=O)[C@@H](CC(C)C)NC(=O)OCCCC)ccc1-2 [Compound 15, Dibutyl((2R,2’R)-((2S,2’S)-(((9H-fluorene-2,7-diyl)bis(azanediyl))bis(carbonyl))bis(pyrrolidine-2,1-diyl))bis(4-methyl-1-oxopentane-1,2-diyl))dicarbamate] | > 1000 nM | – | 34200 nM | – | – | – | –
5 | CCOC(=O)N[C@H](C(=O)N1CCC[C@H]1C(=O)Nc1ccc2c(c1)Cc1cc(NC(=O)[C@@H]3CCCN3C(=O)[C@@H](NC(=O)OCC)C(C)C)ccc1-2)C(C)C [Compound 2, Diethyl((2S,2’S)-((2S,2’S)-(((9H-fluorene-2,7-diyl)bis(azanediyl))bis(carbonyl))bis(pyrrolidine-2,1-diyl))bis(3-methyl-1-oxobutane-1,2-diyl))dicarbamate] | > 1000 nM | – | > 100000 nM | – | – | – | –
6 | CCCCOC(=O)N[C@@H](C(=O)N1CCC[C@H]1C(=O)Nc1ccc2c(c1)Cc1cc(NC(=O)[C@@H]3CCCN3C(=O)[C@H](NC(=O)OCCCC)C(C)C)ccc1-2)C(C)C [Compound 7, Dibutyl((2R,2’R)-((2S,2’S)-(((9H-fluorene-2,7-diyl)bis(azanediyl))bis(carbonyl))bis(pyrrolidine-2,1-diyl))bis(3-methyl-1-oxobutane-1,2-diyl))dicarbamate] | 981 nM | >102 | > 100000 nM | – | – | – | –
7 | COC(=O)N[C@@H](C(=O)N1CCC[C@H]1C(=O)Nc1ccc2c(c1)Cc1cc(NC(=O)[C@@H]3CCCN3C(=O)[C@H](NC(=O)OC)C(C)C)ccc1-2)C(C)C [Compound 5, Dimethyl ((2R,2’R)-((2S,2’S)-(((9H-fluorene-2,7-diyl)bis(azanediyl))bis(carbonyl))bis(pyrrolidine-2,1-diyl))bis(3-methyl-1-oxobutane-1,2-diyl))dicarbamate] | 801 nM | >125 | > 100000 nM | – | – | – | –
8 | CCOC(=O)N[C@H](C(=O)N1CCC[C@H]1C(=O)Nc1ccc2c(c1)Cc1cc(NC(=O)[C@@H]3CCCN3C(=O)[C@@H](NC(=O)OCC)c3ccccc3)ccc1-2)c1ccccc1 [Compound 22, Diethyl((1S,1’S)-((2S,2’S)-(((9H-fluorene-2,7-diyl)bis(azanediyl))bis(carbonyl))bis(pyrrolidine-2,1-diyl))bis(2-oxo-1-phenylethane-2,1-diyl))dicarbamate] | 7.49 nM | >13,349 | > 100000 nM | – | – | – | –
9 | CCOC(=O)N[C@H](CC(C)C)C(=O)N1CCC[C@H]1C(=O)Nc1ccc2c(c1)Cc1cc(NC(=O)[C@@H]3CCCN3C(=O)[C@@H](CC(C)C)NC(=O)OCC)ccc1-2 [Compound 14, Diethyl ((2R,2’R)-((2S,2’S)-(((9H-fluorene-2,7-diyl)bis(azanediyl))bis(carbonyl))bis(pyrrolidine-2,1-diyl))bis(4-methyl-1-oxopentane-1,2-diyl))dicarbamate] | 2.55 nM | >39,185 | > 100000 nM | – | – | – | –
10 | CCC(C)[C@H](NC(=O)OC)C(=O)N1CCCC(C(=O)Nc2ccc3c(c2)Cc2cc(NC(=O)C4CCCN(C(=O)[C@@H](NC(=O)OC)C(C)CC)C4)ccc2-3)C1 (some centres unmarked) [Compound 31] | 296 nM | 333 | 98300 nM | – | – | – | –
11 | O=C(N[C@@H](C(=O)N1CCC[C@H]1C(=O)Nc1ccc2c(c1)Cc1cc(NC(=O)[C@@H]3CCCN3C(=O)[C@H](NC(=O)OCc3ccccc3)c3ccccc3)ccc1-2)c1ccccc1)OCc1ccccc1 [Compound 28, Dibenzyl((1R,1’R)-((2S,2’S)-(((9H-fluorene-2,7-diyl)bis(azanediyl))bis(carbonyl)) Bis(pyrrolidine-2,1-diyl))bis(2-oxo-1-phenylethane-2,1-diyl))dicarbamate] | – | >1,058 | > 100000 nM | – | 2363 times | 94.5 nM | –
12 | CC(C)C[C@@H](NC(=O)OCc1ccccc1)C(=O)N1CCC[C@H]1C(=O)Nc1ccc2c(c1)Cc1cc(NC(=O)[C@@H]3CCCN3C(=O)[C@@H](CC(C)C)NC(=O)OCc3ccccc3)ccc1-2 [Compound 16, Dibenzyl((2R,2’R)-((2S,2’S)-(((9H-fluorene-2,7-diyl)bis(azanediyl))bis(carbonyl))bis(pyrrolidine-2,1-diyl))bis(4-methyl-1-oxopentane-1,2-diyl))dicarbamate] | > 1000 nM | – | > 100000 nM | – | – | – | –
13 | CC(C)[C@H](NC(=O)OCc1ccccc1)C(=O)N1CCC[C@H]1C(=O)Nc1ccc2c(c1)Cc1cc(NC(=O)[C@@H]3CCCN3C(=O)[C@@H](NC(=O)OCc3ccccc3)C(C)C)ccc1-2 [Compound 4, Dibenzyl ((2S,2’S)-((2S,2’S)-(((9H-fluorene-2,7-diyl)bis(azanediyl))bis(carbonyl))bis(pyrrolidine-2,1-diyl))bis(3-methyl-1-oxobutane-1,2-diyl))dicarbamate] | 967 nM | >103 | > 100000 nM | – | – | – | –
14 | CCCCOC(=O)N[C@@H](C(=O)N1CCC[C@H]1C(=O)Nc1ccc2c(c1)Cc1cc(NC(=O)[C@@H]3CCCN3C(=O)[C@H](NC(=O)OCCCC)c3ccccc3)ccc1-2)c1ccccc1 [Compound 27, Dibutyl((1R,1’R)-((2S,2’S)-(((9H-fluorene-2,7-diyl)bis(azanediyl))bis(carbonyl))bis(pyrrolidine-2,1-diyl))bis(2-oxo-1-phenylethane-2,1-diyl))dicarbamate] | 4.03 nM | >24,795 | > 100000 nM | – | 100 times | – | –
15 | COC(=O)N[C@@H](C(=O)N1CCC[C@H]1C(=O)Nc1ccc2c(c1)Cc1cc(NC(=O)[C@@H]3CCCN3C(=O)[C@H](NC(=O)OC)c3ccccc3)ccc1-2)c1ccccc1 [Compound 25, Dimethyl((1R,1’R)-((2S,2’S)-(((9H-fluorene-2,7-diyl)bis(azanediyl))bis(carbonyl))bis(pyrrolidine-2,1-diyl))bis(2-oxo-1-phenylethane-2,1-diyl))dicarbamate] | 0.142 nM | 669,874 | 95400 nM | – | four times less potent | – | 60 fold
